Data taken from ChEMBL document CHEMBL2062412, “Structure and bioassay of triterpenoids and steroids isolated from Sinocalamus affinis” (J Nat Prod, 2012).

Molecular target: T1, Tyrosine-protein phosphatase non-receptor type 1 (Homo sapiens, UniProt P18031)
T1 sequence (P18031 whole entry): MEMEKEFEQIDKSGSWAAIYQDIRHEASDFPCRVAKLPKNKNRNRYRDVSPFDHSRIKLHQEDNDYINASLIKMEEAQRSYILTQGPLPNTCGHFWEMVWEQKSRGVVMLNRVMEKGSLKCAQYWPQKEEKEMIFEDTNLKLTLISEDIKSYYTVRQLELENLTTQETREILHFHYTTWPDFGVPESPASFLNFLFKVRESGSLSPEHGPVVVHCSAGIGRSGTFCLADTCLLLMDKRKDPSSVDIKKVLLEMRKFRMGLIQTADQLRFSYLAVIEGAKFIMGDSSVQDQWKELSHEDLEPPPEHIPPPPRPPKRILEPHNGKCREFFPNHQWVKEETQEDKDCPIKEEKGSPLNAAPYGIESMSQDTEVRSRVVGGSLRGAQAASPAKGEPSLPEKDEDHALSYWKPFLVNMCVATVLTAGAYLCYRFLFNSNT
Test: Inhibition of GST-tagged human recombinant PTP1B using para-nitrophenyl phosphate as substrate by spectrophotometric analysis

Structure (SMILES)	IC50 [µM]
CC(C)[C@@H]1C[C@@H](O)[C@H]2[C@@]1(CO)CC[C@@]1(C)[C@H]3C(=CC[C@]21C)C1=C(C[C@@H]3O)C(C)(C)[C@@H](O)CC1	6.8
CC(C)[C@@H]1[C@H](O)[C@@H](O)[C@H]2[C@@]1(CO)CC[C@@]1(C)[C@H]3C(=CC[C@]21C)C1=C(C[C@@H]3O)C(C)(C)[C@@H](O)CC1	6.8
CC(C)[C@@H]1CC(=O)[C@H]2[C@@]1(CO)CC[C@@]1(C)[C@H]3C(=CC[C@]21C)C1=C(C[C@@H]3O)C(C)(C)[C@@H](O)CC1	6.8
CC(C)[C@@H]1C[C@@H](O)[C@H]2[C@@]1(CO)CC[C@@]1(C)[C@H]3C(=CC[C@]21C)C1=C(C[C@@H]3O)[C@](C)(CO)[C@@H](O)CC1	6.8
CC(C)[C@@H]1C[C@@H](O)[C@H]2[C@@]1(CO)CC[C@@]1(C)[C@H]3C(=CC[C@]21C)C1=CC[C@H](O)C(C)(C)[C@H]1C[C@@H]3O	6.8
